Assay [1] addresses [3H]Noradenaline reuptake. In words: in vitro [3H]noradrenaline reuptake inhibition in rat brain tissue. It is filed as biochemical. Conditions: means of ≧3 separate determinations.
Assay [2] concerns the target [3H]Dopamine reuptake. In words: in vitro [3H]dopamine reuptake inhibition in rat brain tissue. It counts as biochemical. Conditions: means of ≧3 separate determinations.

For orientation: Ki means a measure of affinity in units of concentration, obtained from inhibition or displacement. For `CC(NC(C)(C)C)C(=O)c1cccc(Cl)c1` (stereo not shown) [Bupropion], the Ki in assay [1] worked out at 2590 nM; in assay [2], 409 nM.
The corresponding values for `COc1ccc(C(CN(C)C)C2(O)CCCCC2)cc1` (stereo not shown) [Venlafaxine] are 196 nM and 2590 nM.
